Columns and labels:
[1] = system: collagenase-induced tendonitis of the Achilles tendon in Sprague Dawley rats; experiment: Rat Tendinopathy Model (2), collagenase-induced, tendon histology scoring; type: in vivo; conditions: for tendon histology score: topical once daily 21 days, total score of 20
Procedure: (§1) Fifty (50 μl) of Collagenase Type IA (10 mg/ml in PBS, pH 7.4, approximately 469 units/mg) (Catalog # C5138, Sigma, St. Louis, Mo.) was injected into the Achilles tendon of both ankles near the osteotendinous junction of male Sprague Dawley CD® IGS rats (CRL, Inc.), using insulin syringes with 28.5 G needle.
(§2) Rats were divided into 6 groups, with 6 animals per group except 8 animals in Group 2: Group 1 (sham injection), Group 2 (Collagenase-Vehicle with 0.5% Phx), Group 3 (Collagenase-compound 175 3 mg/mL with 0.5% BA), Group 4 (Collagenase-compound 175 10 mg/mL with 0.5% BA), Group 5 (Collagenase-compound 175 3 mg/mL with 0.5% Phx) and Group 6 (Collagenase-compound 175 10 mg/mL with 0.5% Phx). […] All rats were periodically observed for any pain, illnesses or abnormalities. At various time points, blood was collected for plasma in lithium heparin coated tubes by saphenous vein bleeding. For histology, rats were euthanized using isoflurane, tendons were isolated (n=8 tendons/group), fixed in 10% buffered formalin (Catalog # SF93-4, Fisher, Pittsburgh, Pa.) and H & E histology staining was performed at a secondary site (Pacific Pathology, San Diego, Calif.). For biochemical analysis, tendons were isolated (n=4 tendons/group), flash frozen in liquid nitrogen and then stored at −80° C. for subsequent biochemical analysis (not reported). Additionally, one (1) day after collagenase injection, 4 tendons were collected from Group 2 (vehicle) to observe the induction of inflammation (not reported).
There is biological variability in response to collagenase when injected directly into the tendons. […] Therefore, the entire tendon was isolated and placed in a tissue cassette and embedded in paraffin. Five (5) μm sections were generated with an average of 3 sections being fixed on one slide with a minimum of eight (8) slides per tendon and subjected to Hematoxylin & Eosin (H&E) staining. Slides were viewed under an upright light microscope (EVOS AMEX-1200) at a 10× magnification and scored blinded using a 1-4 scoring system of severity: 1-representing severe damage and 4—representing normal tendon, for Linearity of the fiber structure, Shape of the tendon cells, Density of the tendon cells, Inflammation, and Hemorrhage for a total score of twenty (20) using a modification of that described previously (Urdzikova et al., 2014—see Table 3). After the analysis was completed, the scorer was unblinded and scores for each criterion was annotated, totaled and total scores from each section were averaged together to generate a final score for each rat followed by averaging of scores for a given treatment group.
For tendon scoring, each section was analyzed following a 1-4 point scoring system as previously described (Urdzikova et al., 2014) with the exclusion of one variable, Thickness of the epitenon, due to difficulty in discerning the epitenon layer in the histology sections. In this study, a total of 94 sections were scored for Group 1 (sham injection, control group) and between 92-116 sections for Group 2 (Collagenase-Vehicle with 0.5% Phx); Group 3 (Collagenase-compound 175 3 mg/mL with 0.5% BA), Group 4 (Collagenase-compound 175 10 mg/mL with 0.5% BA), Group 5 (Collagenase-compound 175 3 mg/mL with 0.5% Phx) and Group 6 (Collagenase-compound 175 10 mg/mL with 0.5% Phx).

KC/GRO in plasma = experiment: Rat Tendinopathy Model (2), plasma biomarker KC/GRO; type: in vivo
Procedure: as §1, §2
Following manufacturer's instructions, KC/GRO plasma levels were determined using the KC/GRO Immunoassay kit (Cat #900-K57, Peprotech, Rocky Hill, N.J.). Briefly, 96-well plates were coated with the anti-rat KC/GRO capture antibody overnight and washed to remove excess antibody. Plasma samples were incubated in the coated plates for 2 hours at room temperature. Following washes to remove unbound proteins, biotinylated anti-rat KC/GRO detection antibody was added and incubated for 30 mins at room temperature. Following washes to remove unbound excess antibody, avidin-HRP was added and incubated for 30 mins at room temperature. Following washes to remove unbound avidin-HRP, the ABTS substrate was added and the plates were read on the Cytation 3 plate reader (Biotek Inc., Winooski, Vt.) at an absorbance of 525 nm with correction at 450 nm. All samples were processed in triplicate.

[2] = 3 and 10 mg/mL, with either BA or Phx as preservative

**Q.** Which results are given for `COc1ccc(NC(=O)c2n[nH]c3ccc(-c4cncc(CN5CCCCC5)c4)cc23)cn1` [compound 175, N-(6-Methoxypyridin-3-yl)-5-(5-(piperidin-1-ylmethyl)pyridin-3-yl)-1H-indazole-3-carboxamide]?
**A.** blinded histology scoring of tendon injury and inflammation vs vehicle [1, 2]: significantly ameliorated collagenase-induced tendinopathy; tendon histology score ([1]; Group 3, 3 mg/mL with 0.5% BA): 14.5 (±1.15); tendon histology score ([1]; Group 4, 10 mg/mL with 0.5% BA): 14.8 (±0.968); tendon histology score ([1]; Group 5, 3 mg/mL with 0.5% Phx): 15.1 (±0.506); tendon histology score ([1]; Group 6, 10 mg/mL with 0.5% Phx): 13.2 (±0.855); plasma KC/GRO vs vehicle (KC/GRO in plasma; [2]): significantly decreased the levels of KC/GRO in plasma; Plasma KC/GRO Concentration (KC/GRO in plasma; Day 0, Group 3, 3 mg/mL, 0.5% BA): 78.2 ± 14.9 pg/mL; Plasma KC/GRO Concentration (KC/GRO in plasma; Day 0, Group 4, 10 mg/mL, 0.5% BA): 224 ± 40.1 pg/mL; Plasma KC/GRO Concentration (KC/GRO in plasma; Day 0, Group 5, 3 mg/mL, 0.5% Phx): 112 ± 74.0 pg/mL; Plasma KC/GRO Concentration (KC/GRO in plasma; Day 0, Group 6, 10 mg/mL, 0.5% Phx): 254 ± 60.6 pg/mL; Plasma KC/GRO Concentration (KC/GRO in plasma; Day 1, Group 3, 3 mg/mL, 0.5% BA): 472 ± 47.2 pg/mL; Plasma KC/GRO Concentration (KC/GRO in plasma; Day 1, Group 4, 10 mg/mL, 0.5% BA): 360 ± 31.4 pg/mL; Plasma KC/GRO Concentration (KC/GRO in plasma; Day 1, Group 5, 3 mg/mL, 0.5% Phx): 416 ± 47.9 pg/mL; Plasma KC/GRO Concentration (KC/GRO in plasma; Day 1, Group 6, 10 mg/mL, 0.5% Phx): 375 ± 44.4 pg/mL; Plasma KC/GRO Concentration (KC/GRO in plasma; Day 3, Group 3, 3 mg/mL, 0.5% BA): 449 ± 53.9 pg/mL; Plasma KC/GRO Concentration (KC/GRO in plasma; Day 3, Group 4, 10 mg/mL, 0.5% BA): 454 ± 52.2 pg/mL; Plasma KC/GRO Concentration (KC/GRO in plasma; Day 3, Group 5, 3 mg/mL, 0.5% Phx): 374 ± 89.1 pg/mL; Plasma KC/GRO Concentration (KC/GRO in plasma; Day 3, Group 6, 10 mg/mL, 0.5% Phx): 405 ± 42.1 pg/mL; Plasma KC/GRO Concentration (KC/GRO in plasma; Day 5, Group 3, 3 mg/mL, 0.5% BA): 561 ± 97.2 pg/mL; Plasma KC/GRO Concentration (KC/GRO in plasma; Day 5, Group 4, 10 mg/mL, 0.5% BA): 327 ± 49.9 pg/mL; Plasma KC/GRO Concentration (KC/GRO in plasma; Day 5, Group 5, 3 mg/mL, 0.5% Phx): 431 ± 24.5 pg/mL; Plasma KC/GRO Concentration (KC/GRO in plasma; Day 5, Group 6, 10 mg/mL, 0.5% Phx): 328 ± 37.1 pg/mL; Plasma KC/GRO Concentration (KC/GRO in plasma; Day 7, Group 3, 3 mg/mL, 0.5% BA): 445 ± 54.5 pg/mL; Plasma KC/GRO Concentration (KC/GRO in plasma; Day 7, Group 4, 10 mg/mL, 0.5% BA): 396 ± 92.4 pg/mL; Plasma KC/GRO Concentration (KC/GRO in plasma; Day 7, Group 5, 3 mg/mL, 0.5% Phx): 422 ± 47.9 pg/mL; Plasma KC/GRO Concentration (KC/GRO in plasma; Day 7, Group 6, 10 mg/mL, 0.5% Phx): 299 ± 53.9 pg/mL; Plasma KC/GRO Concentration (KC/GRO in plasma; Day 14, Group 3, 3 mg/mL, 0.5% BA): 319 ± 57.7 pg/mL; Plasma KC/GRO Concentration (KC/GRO in plasma; Day 14, Group 4, 10 mg/mL, 0.5% BA): 343 ± 59.4 pg/mL; Plasma KC/GRO Concentration (KC/GRO in plasma; Day 14, Group 5, 3 mg/mL, 0.5% Phx): 505 ± 41.0 pg/mL; Plasma KC/GRO Concentration (KC/GRO in plasma; Day 14, Group 6, 10 mg/mL, 0.5% Phx): 265 ± 20.8 pg/mL; Plasma KC/GRO Concentration (KC/GRO in plasma; Day 21, Group 3, 3 mg/mL, 0.5% BA): 150 ± 53.8 pg/mL; Plasma KC/GRO Concentration (KC/GRO in plasma; Day 21, Group 4, 10 mg/mL, 0.5% BA): 350 ± 25.6 pg/mL; Plasma KC/GRO Concentration (KC/GRO in plasma; Day 21, Group 5, 3 mg/mL, 0.5% Phx): 226 ± 37.3 pg/mL; Plasma KC/GRO Concentration (KC/GRO in plasma; Day 21, Group 6, 10 mg/mL, 0.5% Phx): 342 ± 39.7 pg/mL; plasma KC/GRO levels, range (KC/GRO in plasma; Days 5-21, all four treated groups): 150 to 561 pg/mL

From patent US10806726B2, “Methods of using indazole-3-carb oxamides and their use as Wnt/B-catenin signaling pathway inhibitors” (Samumed, LLC, priority 2016, dated 2020)
